Common to all, as to assay type: binding
In one test the target is T1, AVPR1B (Homo sapiens, UniProt P47901).
T1 construct: purchased Promega (in-house HiBiT-GPCR construct library, NanoBRET)
T1 sequence (P47901 1-424): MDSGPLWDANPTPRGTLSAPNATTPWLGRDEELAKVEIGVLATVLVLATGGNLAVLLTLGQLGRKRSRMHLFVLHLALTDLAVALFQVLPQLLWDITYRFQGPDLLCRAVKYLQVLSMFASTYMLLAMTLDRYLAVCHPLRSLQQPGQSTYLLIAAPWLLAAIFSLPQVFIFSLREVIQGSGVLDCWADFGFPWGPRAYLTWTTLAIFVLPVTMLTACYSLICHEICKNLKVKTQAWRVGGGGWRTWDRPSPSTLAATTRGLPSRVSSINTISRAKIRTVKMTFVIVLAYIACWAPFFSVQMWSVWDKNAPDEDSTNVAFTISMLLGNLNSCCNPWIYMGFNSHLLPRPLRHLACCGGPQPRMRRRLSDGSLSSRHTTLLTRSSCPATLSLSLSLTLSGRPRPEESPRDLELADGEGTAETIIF
In words: NanoBRET screen HiBiT-AVPR1B in HEK293. Here is the method: (§1) Each tracer candidate was screened across the entire library of HiBiT-GPCR constructs using NanoBRET as the detection modality. As depicted in Figure 4A, the specificity of interactions was evaluated through decrease in BRET due to competitive displacement of a bound tracer by excess parental compound. Each tracer was analyzed for binding to each HiBiT-GPCR fusion in the absence and in the presence of competing parental compound. Briefly, HEK293 cells were transfected with HiBiT-GPCR constructs diluted into promoterless DNA to reduce expression and maximize translocation to the cell surface. Each tracer candidate was then screened at concentrations of 1 μM and 0.1 μM across cells expressing these fusions. Cells were treated for 1.5 h with tracer either alone or in the presence of 20 μM competing parental compound (i.e., control). BRET was measured upon addition of purified LgBiT and subsequent complementation with HiBiT genetically fused to a GPCR. The specificity of interactions was assessed through a decrease in BRET signal due to competitive displacement of the bound tracer. To further gauge the robustness of these interactions, the fold response over the control (i.e., BRETtracer/BRETcontrol) was calculated. We chose a 1.5-fold response, which translates to ≥7-fold signal over noise as the minimal threshold required to score an interaction as positive. […]. Below we highlight the screening results obtained for our exemplary fluorescent tracers based on Clozapine, Amitriptyline and AZD1283.
(§2) HiBiT-GPCR DNA constructs were diluted in 10 mM Tris pH 8 to a final concentration of 0.01 μg/μL, arrayed in 96-well plates and stored at −20 °C. For transfection, HEK293 cells were suspended in Opti-MEM (without phenol red) supplemented with 2% fetal bovine serum (Seradigm) and 100 units/mL penicillin–streptomycin (Gibco) at a final concentration of 220,000 cells/mL and dispensed into white 96-well plates at 90 μL/well. Subsequent transfections and screens were carried using an Agilent Bravo Automated Liquid Handling Platform. First, the 96-well HiBiT DNA arrays were diluted 25-fold in Opti-MEM (without serum or phenol red) to a final concentration of 0.0004 μg/μL and 20 μL of the diluted DNAs were transferred into new 96-well plates. Next, promoterless carrier DNA (1 μg/μL) was diluted 25-fold (0.04 μg/μL) and then dispensed into the diluted arrays at 20 μL/well. Following brief mixing, Viafect transfection reagent (Promega) diluted 16-fold into Opti-MEM was dispensed into the plates at 40 μL/well. After mixing by pipetting, plates were incubated for 10 min on the pipetting station deck. The DNA-transfection reagent complexes were then added to plates containing cells. To facilitate the screen, 10 μL of DNA-transfection reagent complexes were added in duplicates to the top 4 and bottom 4 rows, resulting in two identical 48-well arrays per plate. Plates with transfected cells were incubated for 18–20 h at 37 °C/5% CO2. A screen of each tracer across the entire library using two different concentrations requires duplicate plates of transfected cells. Depending on the number of tracers being screened, transfections can be scaled up using the same ratios. The next day, for each tracer, four 20× screening solutions in tracer dilution buffer (Promega) were prepared: two duplicates at final concentration of 20 μM and two duplicates at a final concentration of 2 μM. A competing unmodified compound was added to one of each duplicate at a final concentration of 400 μM. The four resulting solutions were diluted 4-fold in Opti-MEM without serum or phenol red to generate 5× solutions (5 µM and 0.5 µM tracer +/− 100 μM competing compound). To screen the library, a BioTek MultiFlo FX liquid dispenser was used to dispense 22.5 µL of tracer solution to the top 4 rows and 22.5 µL tracer + competing compound solution to the 4 bottom rows. Plates were briefly mixed on an orbital shaker and incubated for 1.5 h at room temperature. […]
In general terms: Bioluminescence resonance energy transfer reports proximity on the nanometre scale.

The target of another test is T2, CCKAR (Homo sapiens, UniProt P32238).
T2 construct: purchased Promega (in-house HiBiT-GPCR construct library, NanoBRET)
T2 sequence (P32238 1-428): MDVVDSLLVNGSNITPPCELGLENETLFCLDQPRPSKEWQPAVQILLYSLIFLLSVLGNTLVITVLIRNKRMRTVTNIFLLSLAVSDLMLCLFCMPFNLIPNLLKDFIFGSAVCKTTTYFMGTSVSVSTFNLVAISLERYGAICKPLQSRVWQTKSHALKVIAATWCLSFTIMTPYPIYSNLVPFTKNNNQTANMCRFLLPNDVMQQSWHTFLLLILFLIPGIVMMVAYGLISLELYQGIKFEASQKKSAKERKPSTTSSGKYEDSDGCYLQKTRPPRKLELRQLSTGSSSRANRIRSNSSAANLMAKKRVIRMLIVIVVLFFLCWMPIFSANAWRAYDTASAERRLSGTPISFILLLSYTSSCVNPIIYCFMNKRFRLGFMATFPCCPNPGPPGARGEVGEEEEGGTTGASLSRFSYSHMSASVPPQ
In words: NanoBRET screen HiBiT-CCKAR in HEK293. Here is the method: as §1, §2

For the next test, the target named is T3, HRH2 (Homo sapiens, UniProt P25021).
T3 construct: purchased Promega (in-house HiBiT-GPCR construct library, NanoBRET)
In words: NanoBRET screen HiBiT-HRH2 in HEK293. The method, then: as §1, §2

In another test the target is T4, VIPR1 (Homo sapiens, UniProt P32241).
T4 construct: purchased Promega (in-house HiBiT-GPCR construct library, NanoBRET)
T4 sequence (P32241 31-457): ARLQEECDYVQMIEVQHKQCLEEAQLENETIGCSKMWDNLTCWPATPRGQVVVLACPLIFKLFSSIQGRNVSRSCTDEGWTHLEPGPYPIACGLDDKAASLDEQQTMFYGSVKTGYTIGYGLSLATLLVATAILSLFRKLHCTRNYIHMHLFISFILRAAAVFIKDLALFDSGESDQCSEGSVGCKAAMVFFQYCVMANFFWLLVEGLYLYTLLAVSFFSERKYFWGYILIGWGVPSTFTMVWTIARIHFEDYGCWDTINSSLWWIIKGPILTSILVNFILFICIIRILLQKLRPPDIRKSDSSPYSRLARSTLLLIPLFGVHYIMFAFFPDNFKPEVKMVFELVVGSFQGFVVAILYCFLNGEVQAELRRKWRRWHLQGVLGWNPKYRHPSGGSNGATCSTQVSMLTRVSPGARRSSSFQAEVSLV
Put plainly: NanoBRET screen HiBiT-VIPR1 in HEK293. Here is the method:
as §1, §2

Structures are written as SMILES.

T3 sequence (P25021 whole entry): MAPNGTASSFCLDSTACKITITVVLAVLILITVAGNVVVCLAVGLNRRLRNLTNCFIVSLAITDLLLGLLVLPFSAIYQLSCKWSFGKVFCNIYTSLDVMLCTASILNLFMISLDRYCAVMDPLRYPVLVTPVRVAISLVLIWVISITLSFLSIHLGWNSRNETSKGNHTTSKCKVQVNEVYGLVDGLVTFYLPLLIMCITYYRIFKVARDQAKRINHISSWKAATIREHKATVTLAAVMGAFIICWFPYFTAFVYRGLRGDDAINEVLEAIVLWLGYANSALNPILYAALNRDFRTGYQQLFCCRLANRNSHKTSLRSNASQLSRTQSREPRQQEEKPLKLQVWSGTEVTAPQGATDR

Take `O=C(CCc1ccc2n1[B-](F)(F)[N+]1=C(c3ccc[nH]3)C=CC1=C2)NCc1ccc(C(=O)NCCOCCOCCNCC(O)COc2cccc3ccccc23)cc1` (stereo not drawn) [Propranolol-3-NB590]: the “NanoBRET Fold Response” value was 0.90 on AVPR1B (AVPR1B, 0.1μM); 1.04 at AVPR1B (AVPR1B, 1μM); 0.99 at CCKAR (CCKAR, 0.1μM); 0.98 on CCKAR (CCKAR, 1μM); 1.12 at HRH2 (HRH2, 0.1μM); 0.97 on HRH2 (HRH2, 1μM). For the same compound, the “NanoBRET Fold Response” value at VIPR1 (VIPR1, 0.1μM) is recorded as 1.03; on VIPR1 (VIPR1, 1μM), 1.04.
With `COc1ccc2c(n1)c(CCNC(C)=O)cn2CCNC(=O)CCc1ccc2n1[B-](F)(F)[N+]1=C(c3ccc[nH]3)C=CC1=C2` [Azamelatonin-1-NB590], the “NanoBRET Fold Response” value came out at 0.90 on AVPR1B (0.1μM tracer); 1.00 at AVPR1B (1μM tracer); 1.21 at CCKAR (0.1μM tracer); 0.96 at CCKAR (1μM tracer); 0.99 at HRH2 (0.1μM tracer); 0.99 on HRH2 (1μM tracer). For the same compound, the “NanoBRET Fold Response” value at VIPR1 (0.1μM tracer) worked out at 0.99; at VIPR1 (1μM tracer), 1.21.
For `O=C(CCOCCOCCOCCOCCNC(=O)CCc1ccc2n1[B-](F)(F)[N+]1=C(c3ccc[nH]3)C=CC1=C2)NCCCN1CCN(C2=Nc3ccccc3Oc3ccc(Cl)cc32)CC1` [Loxapine-a-2-NB590], the “NanoBRET Fold Response” value is given as 1.06 at AVPR1B (AVPR1B, tracer 0.1μM); 0.96 on AVPR1B (AVPR1B, tracer 1μM); 1.02 on CCKAR (CCKAR, tracer 0.1μM); 0.99 at CCKAR (CCKAR, tracer 1μM); 0.79 on HRH2 (HRH2, tracer 0.1μM); 1.06 at HRH2 (HRH2, tracer 1μM). Also, the “NanoBRET Fold Response” value is 0.94 at VIPR1 (VIPR1, tracer 0.1μM) and 1.05 at VIPR1 (VIPR1, tracer 1μM).
`CC(C)N(CC[C@H](c1ccccc1)c1cc(CCNC(=O)c2ccc(CNC(=O)CCc3ccc4n3[B-](F)(F)[N+]3=C(c5ccc[nH]5)C=CC3=C4)cc2)ccc1O)C(C)C` [Tolterodine-BZ-NB590]: the “NanoBRET Fold Response” value was 0.85 at AVPR1B (AVPR1B, tracer 0.1μM); 0.94 on AVPR1B (AVPR1B, tracer 1μM); 1.05 at CCKAR (CCKAR, tracer 0.1μM); 1.03 on CCKAR (CCKAR, tracer 1μM); 1.05 at HRH2 (HRH2, tracer 0.1μM); 0.87 on HRH2 (HRH2, tracer 1μM). Also, the “NanoBRET Fold Response” value is listed as 0.97 on VIPR1 (VIPR1, tracer 0.1μM) and 0.98 on VIPR1 (VIPR1, tracer 1μM).
On to `O=C(CCc1ccc2n1[B-](F)(F)[N+]1=C(c3ccc[nH]3)C=CC1=C2)NCCOCCOCCNC(=O)OCCOCCN1CCN(C2=Nc3ccccc3Sc3ccccc32)CC1` [Quetiapine-a-2-NB590], for which the “NanoBRET Fold Response” value turned out to be 0.86 on AVPR1B (AVPR1B, tracer 0.1μM); 1.01 on AVPR1B (AVPR1B, tracer 1μM); 1.04 at CCKAR (CCKAR, tracer 0.1μM); 0.94 on CCKAR (CCKAR, tracer 1μM); 0.81 on HRH2 (HRH2, tracer 0.1μM); 1.05 at HRH2 (HRH2, tracer 1μM). The “NanoBRET Fold Response” value on VIPR1 (VIPR1, tracer 0.1μM) came to 1.03; at VIPR1 (VIPR1, tracer 1μM), 0.92.
Take `CN1CCN(C2=Nc3cc(Cl)ccc3Nc3ccc(CNC(=O)CCOCCOCCOCCOCCNC(=O)CCc4ccc5n4[B-](F)(F)[N+]4=C(c6ccc[nH]6)C=CC4=C5)cc32)CC1` [Clozapine-b-2-NB590]: the “NanoBRET Fold Response” value is recorded as 0.98 on AVPR1B (AVPR1B, 0.1μM tracer); 1.02 at CCKAR (CCKAR, 0.1μM tracer); 0.88 at CCKAR (CCKAR, 1μM tracer); 1.01 on HRH2 (HRH2, 0.1μM tracer); 0.97 at HRH2 (HRH2, 1μM tracer); 1.12 on VIPR1 (VIPR1, 0.1μM tracer). At VIPR1 (VIPR1, 1μM tracer), the “NanoBRET Fold Response” value is 0.99.
On to `CC(C)N(CC[C@H](c1ccccc1)c1cc(CCNC(=O)CCOCCOCCOCCOCCNC(=O)CCc2ccc3n2[B-](F)(F)[N+]2=C(c4ccc[nH]4)C=CC2=C3)ccc1O)C(C)C` [Tolterodine-2-NB590], for which the “NanoBRET Fold Response” value at AVPR1B (AVPR1B, tracer 0.1μM) turned out to be 1.42; on AVPR1B (AVPR1B, tracer 1μM), 0.97; at CCKAR (CCKAR, tracer 0.1μM), 1.01; at CCKAR (CCKAR, tracer 1μM) it was 1.01; at HRH2 (HRH2, tracer 0.1μM) it was 1.06; at HRH2 (HRH2, tracer 1μM), 0.82. Moreover, the “NanoBRET Fold Response” value at VIPR1 (VIPR1, tracer 0.1μM) stood at 0.99; at VIPR1 (VIPR1, tracer 1μM) it was 0.78.
On to `CN(C)CCC=C1c2ccccc2CCc2ccc(C(=O)NCCNC(=O)CCOCCOCCOCCOCCNC(=O)CCc3ccc4n3[B-](F)(F)[N+]3=C(c5ccc[nH]5)C=CC3=C4)cc21` [Amitriptyline-a-2-NB590], for which the “NanoBRET Fold Response” value on AVPR1B (tracer at 0.1μM) turned out to be 0.94; at AVPR1B (tracer at 1μM) it was 1.03; at CCKAR (tracer at 0.1μM) it was 1.03; at CCKAR (tracer at 1μM) it was 1.00; at HRH2 (tracer at 0.1μM), 1.00; on HRH2 (tracer at 1μM), 0.99. For the same compound, the “NanoBRET Fold Response” value on VIPR1 (tracer at 0.1μM) worked out at 0.95; at VIPR1 (tracer at 1μM), 1.07.

These data come from PMC8151276, “An Integrated Approach toward NanoBRET Tracers for Analysis of GPCR Ligand Engagement” (Molecules, 2021).
